Patent publication US4464385A, “Treatment of diabetic complications with hydantoins” (Alcon Laboratories, Inc., priority 1982, dated 1984)

System: cataracts in rats
Assay: Prevention or retardation of cataracts in galactose-fed rats
Format: in vivo, rat
Conditions: for % of Total Eyes, + (vacuole) / % of Total Eyes, - (Normal) / % of Total Eyes, N (nuclear cataract) / % of Total Eyes, S (snowflake) / Number of Eyes Observed, + (vacuole) / Number of Eyes Observed, - (Normal) / Number of Eyes Observed, N (nuclear cataract) / Number of Eyes Observed, S (snowflake) / Number of Eyes Observed, ±: 30% galactose diet, A,C,E 0.0025%, B,D 0.01%
Experimental: The compounds to be tested were:
Test compound/diet mixtures were formulated as follows: […]
Similarly, the 0.01% level was designed to provide a drug concentration of 20 mg per kilogram per day.
All animals were fed the Purina Laboratory Chow and water, ad libitum for a two day acclimatization period. The indicated test compound/diet mixture then was introduced to all animals on Study Day 1 and the animals were maintained on this diet throughout thirty days of the study.
Sufficient amounts of test compound/diet mixture were maintained in the food hoppers to allow the animals to eat ad libitum. All aliquots of test compound/diet mixture added to the food hoopers were weighed and the weights, as well as day of addition, recorded.
Twelve animals were assigned to each treatment with each compound at the indicated percentage by total weight of feed. All eyes were examined with a handheld ophthalmoscope and/or penlight.

O=C1NC(=O)C2(CCOc3ccc(F)cc32)N1 (single isomer, unassigned) [SARGES**, dspiro (6fluoro-chroman-4,4imidazolidine)-2',5dione, reference compound]
time of suppression, time to vacuole formation (0.0025% in diet): 20.8 days | suppression of the formation of nuclear cataracts (0.0025% in diet, 30 days): 100%

CSc1ccc2c(c1)C1(CCO2)NC(=O)NC1=O (centres unmarked) [B]
% of Total Eyes, + (vacuole) (Study Day 2): 0% | % of Total Eyes, - (Normal) (Study Day 2): 100.0% | % of Total Eyes, N (nuclear cataract) (Study Day 2): 0% | % of Total Eyes, S (snowflake) (Study Day 2): 0% | Number of Eyes Observed, + (vacuole) (Study Day 2): 0 eyes | Number of Eyes Observed, - (Normal) (Study Day 2): 24 eyes | Number of Eyes Observed, N (nuclear cataract) (Study Day 2): 0 eyes | Number of Eyes Observed, S (snowflake) (Study Day 2): 0 eyes | Number of Eyes Observed, ± (Study Day 2): 0 eyes | % of Total Eyes, + (vacuole) (Study Day 3): 0% | % of Total Eyes, - (Normal) (Study Day 3): 100.0% | % of Total Eyes, N (nuclear cataract) (Study Day 3): 0% | % of Total Eyes, S (snowflake) (Study Day 3): 0% | Number of Eyes Observed, + (vacuole) (Study Day 3): 0 eyes | Number of Eyes Observed, - (Normal) (Study Day 3): 24 eyes | Number of Eyes Observed, N (nuclear cataract) (Study Day 3): 0 eyes | Number of Eyes Observed, S (snowflake) (Study Day 3): 0 eyes | Number of Eyes Observed, ± (Study Day 3): 0 eyes | % of Total Eyes, + (vacuole) (Study Day 4): 0% | % of Total Eyes, - (Normal) (Study Day 4): 100.0% | % of Total Eyes, N (nuclear cataract) (Study Day 4): 0% | % of Total Eyes, S (snowflake) (Study Day 4): 0% | Number of Eyes Observed, + (vacuole) (Study Day 4): 0 eyes | Number of Eyes Observed, - (Normal) (Study Day 4): 24 eyes | Number of Eyes Observed, N (nuclear cataract) (Study Day 4): 0 eyes | Number of Eyes Observed, S (snowflake) (Study Day 4): 0 eyes | Number of Eyes Observed, ± (Study Day 4): 0 eyes | % of Total Eyes, + (vacuole) (Study Day 5): 0% | % of Total Eyes, - (Normal) (Study Day 5): 91.7% | % of Total Eyes, N (nuclear cataract) (Study Day 5): 0% | % of Total Eyes, S (snowflake) (Study Day 5): 0% | Number of Eyes Observed, + (vacuole) (Study Day 5): 0 eyes | Number of Eyes Observed, - (Normal) (Study Day 5): 22 eyes | Number of Eyes Observed, N (nuclear cataract) (Study Day 5): 0 eyes | Number of Eyes Observed, S (snowflake) (Study Day 5): 0 eyes | Number of Eyes Observed, ± (Study Day 5): 2 eyes | % of Total Eyes, + (vacuole) (Study Day 6): 0% | % of Total Eyes, - (Normal) (Study Day 6): 62.5% | % of Total Eyes, N (nuclear cataract) (Study Day 6): 0% | % of Total Eyes, S (snowflake) (Study Day 6): 0% | Number of Eyes Observed, + (vacuole) (Study Day 6): 0 eyes | Number of Eyes Observed, - (Normal) (Study Day 6): 15 eyes | Number of Eyes Observed, N (nuclear cataract) (Study Day 6): 0 eyes | Number of Eyes Observed, S (snowflake) (Study Day 6): 0 eyes | Number of Eyes Observed, ± (Study Day 6): 9 eyes | % of Total Eyes, + (vacuole) (Study Day 8): 8.3% | % of Total Eyes, - (Normal) (Study Day 8): 41.6% | % of Total Eyes, N (nuclear cataract) (Study Day 8): 0% | % of Total Eyes, S (snowflake) (Study Day 8): 0% | Number of Eyes Observed, + (vacuole) (Study Day 8): 2 eyes | Number of Eyes Observed, - (Normal) (Study Day 8): 10 eyes | Number of Eyes Observed, N (nuclear cataract) (Study Day 8): 0 eyes | Number of Eyes Observed, S (snowflake) (Study Day 8): 0 eyes | Number of Eyes Observed, ± (Study Day 8): 12 eyes | % of Total Eyes, + (vacuole) (Study Day 10): 25.0% | % of Total Eyes, - (Normal) (Study Day 10): 37.5% | % of Total Eyes, N (nuclear cataract) (Study Day 10): 0% | % of Total Eyes, S (snowflake) (Study Day 10): 0% | Number of Eyes Observed, + (vacuole) (Study Day 10): 6 eyes | Number of Eyes Observed, - (Normal) (Study Day 10): 9 eyes | Number of Eyes Observed, N (nuclear cataract) (Study Day 10): 0 eyes | Number of Eyes Observed, S (snowflake) (Study Day 10): 0 eyes | Number of Eyes Observed, ± (Study Day 10): 9 eyes | % of Total Eyes, + (vacuole) (Study Day 12): 41.6% | % of Total Eyes, - (Normal) (Study Day 12): 29.2% | % of Total Eyes, N (nuclear cataract) (Study Day 12): 0% | % of Total Eyes, S (snowflake) (Study Day 12): 0% | Number of Eyes Observed, + (vacuole) (Study Day 12): 10 eyes | Number of Eyes Observed, - (Normal) (Study Day 12): 7 eyes | Number of Eyes Observed, N (nuclear cataract) (Study Day 12): 0 eyes | Number of Eyes Observed, S (snowflake) (Study Day 12): 0 eyes | Number of Eyes Observed, ± (Study Day 12): 7 eyes | % of Total Eyes, + (vacuole) (Study Day 14): 78.0% | % of Total Eyes, - (Normal) (Study Day 14): 12.5% | % of Total Eyes, N (nuclear cataract) (Study Day 14): 0% | % of Total Eyes, S (snowflake) (Study Day 14): 0% | Number of Eyes Observed, + (vacuole) (Study Day 14): 18 eyes | Number of Eyes Observed, - (Normal) (Study Day 14): 3 eyes | Number of Eyes Observed, N (nuclear cataract) (Study Day 14): 0 eyes | Number of Eyes Observed, S (snowflake) (Study Day 14): 0 eyes | Number of Eyes Observed, ± (Study Day 14): 3 eyes | % of Total Eyes, + (vacuole) (Study Day 16): 83.3% | % of Total Eyes, - (Normal) (Study Day 16): 0% | % of Total Eyes, N (nuclear cataract) (Study Day 16): 0% | % of Total Eyes, S (snowflake) (Study Day 16): 0% | Number of Eyes Observed, + (vacuole) (Study Day 16): 20 eyes | Number of Eyes Observed, - (Normal) (Study Day 16): 0 eyes | Number of Eyes Observed, N (nuclear cataract) (Study Day 16): 0 eyes | Number of Eyes Observed, S (snowflake) (Study Day 16): 0 eyes | Number of Eyes Observed, ± (Study Day 16): 4 eyes | % of Total Eyes, + (vacuole) (Study Day 18): 95.8% | % of Total Eyes, - (Normal) (Study Day 18): 0% | % of Total Eyes, N (nuclear cataract) (Study Day 18): 0% | % of Total Eyes, S (snowflake) (Study Day 18): 0% | Number of Eyes Observed, + (vacuole) (Study Day 18): 23 eyes | Number of Eyes Observed, - (Normal) (Study Day 18): 0 eyes | Number of Eyes Observed, N (nuclear cataract) (Study Day 18): 0 eyes | Number of Eyes Observed, S (snowflake) (Study Day 18): 0 eyes | Number of Eyes Observed, ± (Study Day 18): 1 eyes | % of Total Eyes, + (vacuole) (Study Day 20): 91.7% | % of Total Eyes, - (Normal) (Study Day 20): 0% | % of Total Eyes, N (nuclear cataract) (Study Day 20): 0% | % of Total Eyes, S (snowflake) (Study Day 20): 4.2% | Number of Eyes Observed, + (vacuole) (Study Day 20): 22 eyes | Number of Eyes Observed, - (Normal) (Study Day 20): 0 eyes | Number of Eyes Observed, N (nuclear cataract) (Study Day 20): 0 eyes | Number of Eyes Observed, S (snowflake) (Study Day 20): 1 eyes | Number of Eyes Observed, ± (Study Day 20): 1 eyes | % of Total Eyes, + (vacuole) (Study Day 22): 70.8% | % of Total Eyes, - (Normal) (Study Day 22): 0% | % of Total Eyes, N (nuclear cataract) (Study Day 22): 0% | % of Total Eyes, S (snowflake) (Study Day 22): 29.2% | Number of Eyes Observed, + (vacuole) (Study Day 22): 17 eyes | Number of Eyes Observed, - (Normal) (Study Day 22): 0 eyes | Number of Eyes Observed, N (nuclear cataract) (Study Day 22): 0 eyes | Number of Eyes Observed, S (snowflake) (Study Day 22): 7 eyes | Number of Eyes Observed, ± (Study Day 22): 0 eyes | % of Total Eyes, + (vacuole) (Study Day 24): 45.8% | % of Total Eyes, - (Normal) (Study Day 24): 0% | % of Total Eyes, N (nuclear cataract) (Study Day 24): 0% | % of Total Eyes, S (snowflake) (Study Day 24): 54.2% | Number of Eyes Observed, + (vacuole) (Study Day 24): 11 eyes | Number of Eyes Observed, - (Normal) (Study Day 24): 0 eyes | Number of Eyes Observed, N (nuclear cataract) (Study Day 24): 0 eyes | Number of Eyes Observed, S (snowflake) (Study Day 24): 13 eyes | Number of Eyes Observed, ± (Study Day 24): 0 eyes | % of Total Eyes, + (vacuole) (Study Day 26): 20.8% | % of Total Eyes, - (Normal) (Study Day 26): 0% | % of Total Eyes, N (nuclear cataract) (Study Day 26): 0% | % of Total Eyes, S (snowflake) (Study Day 26): 79.2% | Number of Eyes Observed, + (vacuole) (Study Day 26): 5 eyes | Number of Eyes Observed, - (Normal) (Study Day 26): 0 eyes | Number of Eyes Observed, N (nuclear cataract) (Study Day 26): 0 eyes | Number of Eyes Observed, S (snowflake) (Study Day 26): 19 eyes | Number of Eyes Observed, ± (Study Day 26): 0 eyes | % of Total Eyes, + (vacuole) (Study Day 28): 8.3% | % of Total Eyes, - (Normal) (Study Day 28): 0% | % of Total Eyes, N (nuclear cataract) (Study Day 28): 0% | % of Total Eyes, S (snowflake) (Study Day 28): 91.7% | Number of Eyes Observed, + (vacuole) (Study Day 28): 2 eyes | Number of Eyes Observed, - (Normal) (Study Day 28): 0 eyes | Number of Eyes Observed, N (nuclear cataract) (Study Day 28): 0 eyes | Number of Eyes Observed, S (snowflake) (Study Day 28): 22 eyes | Number of Eyes Observed, ± (Study Day 28): 0 eyes | % of Total Eyes, + (vacuole) (Study Day 30): 4.2% | % of Total Eyes, - (Normal) (Study Day 30): 0% | % of Total Eyes, N (nuclear cataract) (Study Day 30): 0% | % of Total Eyes, S (snowflake) (Study Day 30): 95.8% | Number of Eyes Observed, + (vacuole) (Study Day 30): 1 eyes | Number of Eyes Observed, - (Normal) (Study Day 30): 0 eyes | Number of Eyes Observed, N (nuclear cataract) (Study Day 30): 0 eyes | Number of Eyes Observed, S (snowflake) (Study Day 30): 23 eyes | Number of Eyes Observed, ± (Study Day 30): 0 eyes
